Where a SMILES comes first, the peptide text is derived from it.
Experiment: Peak sweetness intensity perception relative to sucrose (potency-normalized comparison)
Set-up: key: Quick: display a peak sweetness intensity faster than that experienced for sucrose; Slow: display a peak sweetness intensity slower than that experienced for sucrose
Conditions: sucrose as reference
Source text: The sweeteners listed in TABLE 1 have been categorized with respect to their peak sweetness intensity perception relative to sucrose as either quick or slow. Those sweeteners that have been categorized as “quick” display a peak sweetness intensity faster than that experienced for sucrose. Those sweeteners that have been categorized as “slow” display a peak sweetness intensity slower than that experienced for sucrose. Comparisons of peak sweetness intensity are made using potency-normalized comparisons to account for the different amounts of each ingredient to experience the same absolute peak sweetness.

Molecule | Onset Speed Relative to Sucrose
Steviosides | Slow
OC[C@@H](O)[C@@H](O)CO [Erythritol] | Quick
O=C1NS(=O)(=O)c2ccccc21 [Saccharin] | Quick
OC[C@H]1O[C@H](O[C@]2(CCl)O[C@H](CCl)[C@@H](O)[C@@H]2O)[C@H](O)[C@@H](O)[C@H]1Cl [Sucralose] | Slow
OC[C@@H](O)[C@@H](O)[C@H](O)[C@@H](O)CO [Sorbitol] | Quick
COC(=O)[C@H](Cc1ccccc1)NC(=O)[C@H](CC(=O)O)NCCC(C)(C)C [Neotame] | Slow
CC1=CC(=O)NS(=O)(=O)O1 [Acesulfame K] | Quick
OC[C@@H](O)[C@H](O)[C@@H](O)CO [Xylitol] | Quick
COC(=O)[C@H](Cc1ccccc1)NC(=O)[C@@H](N)CC(=O)O [Aspartame] (H-Asp-Phe-OMe) | Slow
